From patent US10329289B2, “6,7-dihydro-5H-pyrrolo[3,4-B]pyridin-5-one allosteric modulators of the M4 muscarinic acetylcholine receptor” (Merck Sharp & Dohme Corp., priority 2015, dated 2019)

biological target: T1, human M4 muscarinic acetylcholine receptor (Homo sapiens, UniProt P08173); assay: human FLIPR-based M4 PAM assay (Ca2+ mobilization, CHO-K1 cells with human M4 receptor and Gαqi5); type: cell-based; conditions: acetylcholine at 20% of maximum response, read-out: M4 PAM IP
T1 construct: expressed in transfected cells; host or cells: CHO-K1
T1 sequence (P08173 1-479): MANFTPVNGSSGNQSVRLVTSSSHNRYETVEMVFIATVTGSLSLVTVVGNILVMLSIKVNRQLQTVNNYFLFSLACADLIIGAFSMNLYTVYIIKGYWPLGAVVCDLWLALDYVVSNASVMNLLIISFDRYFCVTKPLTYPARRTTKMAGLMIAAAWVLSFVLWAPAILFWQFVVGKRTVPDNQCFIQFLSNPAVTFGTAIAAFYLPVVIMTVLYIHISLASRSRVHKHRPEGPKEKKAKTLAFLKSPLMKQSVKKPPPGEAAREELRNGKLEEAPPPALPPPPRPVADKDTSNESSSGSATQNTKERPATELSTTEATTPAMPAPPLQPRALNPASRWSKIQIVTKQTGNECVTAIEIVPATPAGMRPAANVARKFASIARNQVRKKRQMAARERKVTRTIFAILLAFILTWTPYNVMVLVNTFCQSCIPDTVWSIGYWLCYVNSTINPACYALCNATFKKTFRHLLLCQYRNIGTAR
Description: In a typical experiment the M4 muscarinic acetylcholine receptor modulating activity of the compounds of the present invention was determined in accordance with the following experimental method. CHO-K1 cells stably transfected with human M4 receptor and chimeric G-protein Gαqi5 (Coward P, et al., Analytical Biochemistry, 270:242-248 (1999)) are thawed from liquid N2 storage, resuspended in growth medium, plated in black, clear bottom 384 well plates, and incubated 16-20 hours at 37° C., 5% CO2. On the day of assay, growth medium is removed, the cells are washed 2 times with wash buffer, and cells are incubated in dye loading buffer at 37° C., 5% CO2 for ˜1 hour. […] Next, 10 uL of acetylcholine is added (final concentration calculated so as to achieve 20% of the maximum acetycholine response), and the fluorescence reading is continued for 3.5 min. In some cases, a third addition of acetylcholine (final concentration calculated to achieve 70% of the maximal acetylcholine response) is performed. The resulting dose response curves are fit to a 4 parameter logistic equation and the final result is determined as the inflection point (IP) of the curve
CHO-K1 cells stably transfected with human M4 receptor and chimeric G-protein Gαqi5 are thawed from liquid N2 storage, resuspended in growth medium, plated in black, clear bottom 384 well plates, and incubated 16-20 hours at 37° C., 5% CO2.
On the day of assay, growth medium is removed, the cells are washed 2 times with wash buffer, and cells are incubated in dye loading buffer at 37° C., 5% CO2 for ˜1 h. […] Next, 10 uL of acetylcholine is added (final concentration calculated so as to achieve 20% of the maximum acetycholine response), and the fluorescence reading is continued for 3.5 min. In some cases, a third addition of acetylcholine (final concentration calculated to achieve 70% of the maximal acetylcholine response) is performed.

For “3-methyl-2-(4-(3,3,3- trifluoro-2- hydroxypropoxy)piperi- din-1-yl)-6,7-dihydro- 5H-pyrrolo[3,4- b]pyridin-5-one [Example 179]”, which EC50 is on record?
Its EC50 is 168 nM.

For `Cc1cc2c(nc1N1CC[C@@H](Oc3cccc(C#N)c3)[C@@H](F)C1)CNC2=O` (relative stereo) [Example 7, 3-((cis-3-fluoro-1-(3-methyl-5-oxo-6,7-dihydro-5H-pyrrolo[3,4-b]pyridin-2-yl)piperidin-4-yl)oxy)benzonitrile], which EC50 is on record?
Its EC50 is 30 nM.

`COc1ccc(O[C@@H]2CCN(c3nc4c(cc3C)C(=O)NC4)C[C@H]2C)cn1` (single isomer, unassigned) [Example 2A] was tested. Which EC50 did it give?
Its EC50 is 86 nM.

With `COc1ccc(O[C@H]2CCN(c3nc4c(cc3C)C(=O)NC4)C[C@@H]2C)cn1` (single isomer, unassigned) [Example 2B] as the compound, how does the EC50 read?
Its EC50 is 734 nM.

`Cc1cc2c(nc1N1CCC(OC[C@@H]3C[C@H]3C(F)(F)F)CC1)CNC2=O` (single isomer, unassigned) [Example 3A, 3-methyl-2-(4-(((trans)-2-(trifluoromethyl)cyclopropyl)methoxy)piperidin-1-yl)-6,7-dihydro-5H-pyrrolo[3,4-b]pyridin-5-one] was tested. Which EC50 did it give?
The EC50 was 637 nM.

Which EC50 does the source give for `Cc1cc2c(nc1N1CCC(Oc3ccc(O[C@H](C)CO)nc3)CC1)CNC2=O` (single isomer, unassigned) [Example 141A] here?
Its EC50 is 82 nM.

`Cc1cc2c(nc1N1CCC(Oc3ccc(O[C@@H](C)CO)nc3)CC1)CNC2=O` (single isomer, unassigned) [Example 141B] was tested. Which EC50 did it give?
Its EC50 is 55 nM.

How did the EC50 turn out when `Cc1cc2c(nc1N1CCC(Oc3ccc([C@@H](C)O)cc3)CC1)CNC2=O` (single isomer, unassigned) [Example 150A] was run?
The EC50 was 124 nM.

For `Cc1cc2c(nc1N1CCC(Oc3ccc([C@H](C)O)cc3)CC1)CNC2=O` (single isomer, unassigned) [Example 150B], which EC50 is on record?
The EC50 was 197 nM.

For `Cc1cc2c(nc1N1CCC(Oc3ccccc3)C(F)(F)C1)CNC2=O` (single isomer, unassigned) [Example 158A, cis-2-(3,3-Difluoro-4-phenoxypiperidin-1-yl)-3-methyl-6,7-dihydro-5H-pyrrolo[3,4-b]pyridin-5-one], which EC50 is on record?
The EC50 was 452 nM.

How did the EC50 turn out when `Cc1cc2c(nc1N1CCC(Oc3ccccc3)C(F)(F)C1)CNC2=O` (single isomer, unassigned) [Example 158B, trans-2-(3,3-Difluoro-4-phenoxypiperidin-1-yl)-3-methyl-6,7-dihydro-5H-pyrrolo[3,4-b]pyridin-5-one] was run?
Its EC50 is 17 nM.

Which EC50 does the source give for `Cc1cc2c(nc1N1CCC(OC[C@]3(C)C[C@@H]3F)CC1)CNC2=O` (single isomer, unassigned) [Example 160A] here?
Its EC50 is 627 nM.

Which EC50 does the source give for `Cc1cc2c(nc1N1CCC(OC[C@@]3(C)C[C@H]3F)CC1)CNC2=O` (single isomer, unassigned) [Example 160B] here?
Its EC50 is 96 nM.

Which EC50 does the source give for `Cc1cc2c(nc1N1CCC(OC[C@]3(C)C[C@H]3F)CC1)CNC2=O` (single isomer, unassigned) [Example 160C] here?
Its EC50 is 58 nM.

How did the EC50 turn out when `Cc1cc2c(nc1N1CCC(OC[C@@]3(C)C[C@@H]3F)CC1)CNC2=O` (single isomer, unassigned) [Example 160D] was run?
Its EC50 is 37 nM.

With `Cc1cc2c(nc1N1CC[C@H](Oc3cccnc3)[C@H](F)C1)CNC2=O` (single isomer, unassigned) [Example 165, 2-((3R,4S) or (3S,4R)-3-fluoro-4-(pyridin-3-yloxy)piperidin-1-yl)-3-methyl-6,7-dihydro-5H-pyrrolo[3,4-b]pyridin-5-one] as the compound, how does the EC50 read?
Its EC50 is 467 nM.

How did the EC50 turn out when `Cc1cc2c(nc1N1CC[C@@H](Oc3cccnc3)[C@@H](F)C1)CNC2=O` (single isomer, unassigned) [Example 166, 2-((3S,4R) or (3R,4S)-3-fluoro-4-(pyridin-3-yloxy)piperidin-1-yl)-3-methyl-6,7-dihydro-5H-pyrrolo[3,4-b]pyridin-5-one] was run?
The EC50 was 90 nM.

`Cc1cc2c(nc1N1CCC(Oc3ccc4c(c3)C[S+]([O-])C4)CC1)CNC2=O` (single isomer, unassigned) [Example 168A] was tested. Which EC50 did it give?
The EC50 was 209 nM.

`Cc1cc2c(nc1N1CCC(Oc3ccc4c(c3)C[S+]([O-])C4)CC1)CNC2=O` (single isomer, unassigned) [Example 168B] was tested. Which EC50 did it give?
Its EC50 is 166 nM.

With `Cc1cc2c(nc1N1CCC(OCC(O)C(F)(F)F)CC1)CNC2=O` (single isomer, unassigned) [Example 181A] as the compound, how does the EC50 read?
The EC50 was 55 nM.

`Cc1cc2c(nc1N1CCC(OCC(O)C(F)(F)F)CC1)CNC2=O` (single isomer, unassigned) [Example 181B] was tested. Which EC50 did it give?
The EC50 was 183 nM.

`COc1ccc(OC2[C@@H]3C[C@H]2CN(c2nc4c(cc2C)C(=O)NC4)C3)cn1` (single isomer, unassigned) [Example 185A] was tested. Which EC50 did it give?
Its EC50 is 8630 nM.

`COc1ccc(OC2[C@@H]3C[C@H]2CN(c2nc4c(cc2C)C(=O)NC4)C3)cn1` (single isomer, unassigned) [Example 185B] was tested. Which EC50 did it give?
Its EC50 is 2530 nM.

Which EC50 does the source give for `Cc1cc2c(nc1N1CCC(OCC3(C)CC3C#N)CC1)CNC2=O` (single isomer, unassigned) [Example 191A] here?
Its EC50 is 1470 nM.

How did the EC50 turn out when `Cc1cc2c(nc1N1CCC(OCC3(C)CC3C#N)CC1)CNC2=O` (single isomer, unassigned) [Example 191B] was run?
The EC50 was 30000 nM.

Which EC50 does the source give for `Cc1cc2c(nc1N1CCC(OCC3(C)CC3C#N)CC1)CNC2=O` (single isomer, unassigned) [Example 193A] here?
The EC50 was 312 nM.

`Cc1cc2c(nc1N1CCC(OCC3(C)CC3C#N)CC1)CNC2=O` (single isomer, unassigned) [Example 193B] was tested. Which EC50 did it give?
Its EC50 is 875 nM.

`CCc1cc2c(nc1N1CC[C@@H](Oc3cccnc3)[C@@H](F)C1)CNC2=O` (single isomer, unassigned) [Example 215] was tested. Which EC50 did it give?
The EC50 was 304 nM.

`CCc1cc2c(nc1N1CC[C@@H](Oc3cccnc3)[C@@H](F)C1)CNC2=O` (single isomer, unassigned) [Example 216, 3-ethyl-2-((3R,4S)- or (3S,4R)-3-fluoro-4-(pyridin-3-yloxy)piperidin-1-yl)-6,7-dihydro-5H-pyrrolo[3,4-b]pyridin-5-one] was tested. Which EC50 did it give?
The EC50 was 888 nM.

How did the EC50 turn out when `CCOc1ccc(OC2CCN(c3nc4c(cc3C)C(=O)N[C@@H]4CCO)CC2)cn1` (single isomer, unassigned) [Example 234B] was run?
Its EC50 is 78 nM.

For `Cc1cc2c(nc1N1CCC(Oc3ccc4c(c3)COC4)CC1)CN(CC(C)O)C2=O` (single isomer, unassigned) [Example 238A, (R) or (S)-2-(4-((1,3-dihydro-2-benzofuran-5-yl)oxy)piperidin-1-yl)-6-(2-hydroxypropyl)-3-methyl-6,7-dihydro-5H-pyrrolo[3,4-b]pyridin-5-one], which EC50 is on record?
Its EC50 is 87 nM.

How did the EC50 turn out when `COc1ccc(OC2CCN(c3nc4c(cc3C)C(=O)N([C@H](C)CO)C4)CC2)cn1` (single isomer, unassigned) [Example 264B] was run?
Its EC50 is 108 nM.

With `COc1ccc(OC2CCN(c3nc4c(cc3C)C(=O)N([C@@H](C)CO)C4)CC2)cn1` (single isomer, unassigned) [Example 264C] as the compound, how does the EC50 read?
The EC50 was 40 nM.

For `COc1ccc(OC2CCN(c3nc4c(cc3C)C(=O)N[C@H]4CO)CC2)cn1` (single isomer, unassigned) [Example 271A], which EC50 is on record?
The EC50 was 941 nM.

With `COc1ccc(OC2CCN(c3nc4c(cc3C)C(=O)N[C@@H]4CO)CC2)cn1` (single isomer, unassigned) [Example 271B] as the compound, how does the EC50 read?
The EC50 was 38 nM.

How did the EC50 turn out when `COc1ccc(OC2CCN(c3nc4c(cc3C)C(=O)N(C)[C@H]4CO)CC2)cn1` (single isomer, unassigned) [Example 273A] was run?
Its EC50 is 4500 nM.
